Structures are written as SMILES.

For one test, the target named is T1, mouse TAAR1 (Mus musculus, UniProt Q923Y8).
T1 construct: expressed in transfected cells; host or cells: HEK293 (ATCC # CRL-1573), stably transfected with pIRESneo2 expression plasmid
Nature of the test: TAAR1 radioligand binding with [3H]-rac-2-(1,2,3,4-tetrahydro-1-naphthyl)-2-imidazoline, membranes of stably transfected HEK293 cells. Particulars: first value of the cell, read-out: Ki (μM) mouse/rat: mouse. The method, then:
(§1) For the construction of expression plasmids the coding sequences of human, rat and mouse TAAR 1 were amplified from genomic DNA essentially as described by Lindemann et al.. The Expand High Fidelity PCR System (Roche Diagnostics) was used with 1.5 mM Mg^2+ and purified PCR products were cloned into pCR2.1-TOPO cloning vector (Invitrogen) following the instructions of the manufacturer. PCR products were subcloned into the pIRESneo2 vector (BD Clontech, Palo Alto, Calif.), and expression vectors were sequence verified before introduction in cell lines.
(§2) HEK293 cells (ATCC # CRL-1573) were cultured essentially as described by Lindemann et al. (2005). For the generation of stably transfected cell lines HEK293 cells were transfected with the pIRESneo2 expression plasmids containing the TAAR coding sequences (described above) with Lipofectamine 2000 (Invitrogen) according to the instructions of the manufacturer, and 24 hrs post transfection the culture medium was supplemented with 1 mg/ml G418 (Sigma, Buchs, Switzerland). After a culture period of about 10 d clones were isolated, expanded and tested for responsiveness to trace amines (all compounds purchased from Sigma) with the cAMP Biotrak Enzyme immunoassay (EIA) System (Amersham) following the non-acetylation EIA procedure provided by the manufacturer.
(§3) Cells at confluence were rinsed with ice-cold phosphate buffered saline without Ca^2+ and Mg^2+ containing 10 mM EDTA and pelleted by centrifugation at 1000 rpm for 5 min at 4° C. The pellet was then washed twice with ice-cold phosphate buffered saline and the cell pellet was frozen immediately by immersion in liquid nitrogen and stored until use at −80° C. The cell pellet was then suspended in 20 ml HEPES-NaOH (20 mM), pH 7.4 containing 10 mM EDTA, and homogenized with a Polytron (PT 3000, Kinematica) at 10,000 rpm for 10 s. The homogenate was centrifuged at 48,000×g for 30 min at 4° C. and the pellet resuspended in 20 ml HEPES-NaOH (20 mM), pH 7.4 containing 0.1 mM EDTA (buffer A), and homogenized with a Polytron at 10,000 rpm for 10 s. The homogenate was then centrifuged at 48,000×g for 30 min at 4° C. and the pellet resuspended in 20 ml buffer A, and homogenized with a Polytron at 10,000 rpm for 10 s. Protein concentration was determined by the method of Pierce (Rockford, Ill.). The homogenate was then centrifuged at 48,000×g for 10 min at 4° C., resuspended in HEPES-NaOH (20 mM), pH 7.0 including MgCl2 (10 mM) and […] homogenized with a Polytron at 10,000 rpm for 10 s.
(§4) The binding assay was performed at 4° C. in a final volume of 1 ml, and with an incubation time of 30 min. The radioligand [^3H]-rac-2-(1,2,3,4-tetrahydro-1-naphthyl)-2-imidazoline was used at a concentration equal to the calculated Kd value of 60 nM to give a bound at around 0.1% of the total added radioligand concentration, and a specific binding which represented approximately 70-80% of the total binding. Non-specific binding was defined as the amount of [^3H]-rac-2-(1,2,3,4-tetrahydro-1-naphthyl)-2-imidazoline bound in the presence of the appropriate unlabelled ligand (10 μM). Competing ligands were tested in a wide range of concentrations (10 pM-30 μM). […] Each experiment was performed in duplicate. All incubations were terminated by rapid filtration through UniFilter-96 plates (Packard Instrument Company) and glass filter GF/C, pre-soaked for at least 2 h in polyethylenimine 0.3%, and using a Filtermate 96 Cell Harvester (Packard Instrument Company). The tubes and filters were then washed 3 times with 1 ml aliquots of cold buffer B. Filters were not dried and soaked in Ultima gold (45 μl/well, Packard Instrument Company) and bound radioactivity was counted by a TopCount Microplate Scintillation Counter (Packard Instrument Company).

In another test the target is T2, rat TAAR1 (Rattus norvegicus, UniProt Q923Y9).
T2 construct: expressed in transfected cells; host or cells: HEK293 (ATCC # CRL-1573), stably transfected with pIRESneo2 expression plasmid
Described as above. The settings on record: second value of the cell, read-out: Ki (μM) mouse/rat: rat. As to the method: as §1, §2, §3, §4

T1 sequence (Q923Y8 whole entry): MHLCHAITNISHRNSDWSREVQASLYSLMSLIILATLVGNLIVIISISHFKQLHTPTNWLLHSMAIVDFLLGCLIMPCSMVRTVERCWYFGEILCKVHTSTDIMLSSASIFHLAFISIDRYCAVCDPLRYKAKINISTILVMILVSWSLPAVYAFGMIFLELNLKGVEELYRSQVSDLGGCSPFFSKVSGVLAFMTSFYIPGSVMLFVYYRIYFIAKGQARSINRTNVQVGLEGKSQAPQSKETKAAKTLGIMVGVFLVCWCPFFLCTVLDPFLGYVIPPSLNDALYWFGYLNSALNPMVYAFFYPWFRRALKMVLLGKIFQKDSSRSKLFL
T2 sequence (Q923Y9 whole entry): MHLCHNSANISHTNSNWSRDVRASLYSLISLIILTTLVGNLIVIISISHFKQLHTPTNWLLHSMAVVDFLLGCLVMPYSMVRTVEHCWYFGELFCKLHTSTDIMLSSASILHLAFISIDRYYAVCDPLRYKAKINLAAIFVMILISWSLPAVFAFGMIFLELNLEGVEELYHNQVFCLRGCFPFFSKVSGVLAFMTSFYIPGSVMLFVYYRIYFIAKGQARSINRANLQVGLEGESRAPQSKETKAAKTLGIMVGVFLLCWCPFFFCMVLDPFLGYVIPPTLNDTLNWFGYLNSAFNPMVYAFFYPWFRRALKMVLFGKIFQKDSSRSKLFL

`NC1=N[C@@H](CCc2ccc(NC(=O)c3cccc(F)n3)cc2)CO1` [Example 88, 6-Fluoro-pyridine-2-carboxylic acid {4-[2-((S)-2-amino-4,5-dihydro-oxazol-4-yl)-ethyl]-phenyl}-amide]: the Ki worked out at 0.0097 µM at mouse TAAR1 and 0.0014 µM on rat TAAR1.

In the case of `C#Cc1ccc(NC(=O)c2ccc(CC[C@H]3COC(N)=N3)cc2)cc1` [Example 145, (S)-4-(2-(2-amino-4,5-dihydrooxazol-4-yl)ethyl)-N-(4-ethynylphenyl)benzamide], the Ki was determined as 0.0018 µM at mouse TAAR1 and 0.0001 µM at rat TAAR1.

In the case of `NC1=N[C@@H](CCc2ccc(NC(=O)c3ncoc3C3CC3)cc2)CO1` [Example 214, (S)-N-(4-(2-(2-Amino-4,5-dihydrooxazol-4-yl)ethyl)phenyl)-5-cyclopropyloxazole-4-carboxamide], the Ki at mouse TAAR1 is 0.0011 µM; at rat TAAR1, 0.0028 µM.

For `COc1cc(Cl)ccc1C(=O)Nc1ccc(CC[C@H]2COC(N)=N2)cc1` [Example 138, (S)-N-(4-(2-(2-Amino-4,5-dihydrooxazol-4-yl)ethyl)phenyl)-4-chloro-2-methoxybenzamide], the Ki on mouse TAAR1 and at rat TAAR1 was 0.0002 µM throughout.

For `NC1=N[C@@H](CCc2ccc(NC(=O)c3cnc(Cl)cn3)cc2)CO1` [Example 126, (S)-N-(4-(2-(2-Amino-4,5-dihydrooxazol-4-yl)ethyl)phenyl)-5-chloropyrazine-2-carboxamide], the Ki came out at 0.0007 µM on mouse TAAR1 and 0.002 µM on rat TAAR1.

Turning to `N#Cc1ccc(C(=O)Nc2ccc(CC[C@H]3COC(N)=N3)cc2)cc1` [Example 59, N-{4-[2-((S)-2-Amino-4,5-dihydro-oxazol-4-yl)-ethyl]-phenyl}-4-cyano-benzamide], the Ki at mouse TAAR1 and at rat TAAR1 was 0.0022 µM in each case.

For the molecule `CCc1nc(OC)cc(C(=O)Nc2ccc(CC[C@H]3COC(N)=N3)cc2)n1` [Example 203, 2-Ethyl-6-methoxy-pyrimidine-4-carboxylic acid {4-[2-((S)-2-amino-4,5-dihydro-oxazol-4-yl)-ethyl]-phenyl}-amide], the figures for the Ki at mouse TAAR1 and at rat TAAR1 were 0.0008 µM and 0.0014 µM, respectively.

In the case of `NC1=N[C@@H](CCc2ccc(NC(=O)c3cnc(N4CCC(F)(F)CC4)cn3)cc2)CO1` [Example 164], the Ki on mouse TAAR1 stood at 0.0018 µM; at rat TAAR1 it was 0.0027 µM.

For `NC1=N[C@@H](CCc2ccc(NC(=O)c3ncc(C(F)(F)F)cc3Cl)cc2)CO1` [Example 101, 3-Chloro-5-trifluoromethyl-pyridine-2-carboxylic acid {4-[2-((S)-2-amino-4,5-dihydro-oxazol-4-yl)-ethyl]-phenyl}-amide], the Ki was 0.0007 µM at mouse TAAR1 and 0.0021 µM on rat TAAR1.

For `NC1=N[C@@H](CCc2ccc(NC(=O)c3ccc(F)nc3F)cc2)CO1` [Example 110, N-{4-[2-((S)-2-Amino-4,5-dihydro-oxazol-4-yl)-ethyl]-phenyl}-2,6-difluoro-nicotinamide], the Ki was 0.0054 µM at mouse TAAR1 and 0.0048 µM on rat TAAR1.

`NC1=N[C@@H](CCc2ccc(C(=O)Nc3ccc(Cl)cn3)cc2)CO1` [Example 131, (S)-4-(2-(2-Amino-4,5-dihydrooxazol-4-yl)ethyl)-N-(5-chloropyridin-2-yl)benzamide]: the Ki came to 0.004 µM on mouse TAAR1 and 0.0008 µM at rat TAAR1.

Regarding `CO[C@H](C(=O)Nc1ccc(CC[C@H]2COC(N)=N2)cc1)c1ccccc1` [Example 74, (S)-N-{4-[2-((S)-2-Amino-4,5-dihydro-oxazol-4-yl)-ethyl]-phenyl}-2-methoxy-2-phenyl-acetamide], the results for the Ki on mouse TAAR1 and at rat TAAR1 were 0.009 µM and 0.0073 µM, respectively.

Turning to `NC1=N[C@@H](CCc2ccc(NC(=O)c3ccc(Cl)cc3F)cc2)CO1` [Example 136, (S)-N-(4-(2-(2-Amino-4,5-dihydrooxazol-4-yl)ethyl)phenyl)-4-chloro-2-fluorobenzamide], the Ki at mouse TAAR1 turned out to be 0.0003 µM; on rat TAAR1, 0.0006 µM.

The record behind these values is patent US8354441B2, “Oxazoline derivatives” (Hoffmann-La Roche Inc., priority 2009, dated 2013).
